Measured values reported in paper PMC9609714, “Exploring Novel Pyridine Carboxamide Derivatives as Urease Inhibitors: Synthesis, Molecular Docking, Kinetic Studies and ADME Profile” (Pharmaceuticals, 2022).
Like-named read-outs stand apart in the source and are kept apart here.

Legend:
[1] = molecular target: T1, urease (Canavalia ensiformis, UniProt P07374); test: biochemical
Experimental: The indophenol method was adopted for the estimation of urease inhibition activity for synthesized compounds with minor modification. In the assay, the total volume was kept at 100 µL which was composed of 10 µL urease having a concentration of 5 U/mL, 40 µL of phosphate buffer (0.01mM K2HPO4+ EDTA + […]); pH was adjusted to 8.15 using 40 µL of phenol reagent (1%, phenol, and sodium nitroprusside) and alkali reagent. This alkali reagent was composed of 0.5% of sodium hydroxide and 0.1% of active chloride (NaOCl). For the determination of urease activity, the test compound and enzyme were incubated for 30 min at 37 °C in the assay buffer; then phenol/alkali reagent was added. All reactions were performed in 96 well plates in a triplicate manner. Absorbance was measured at a wavelength of 625 nm using the instrument FLUOstar® Omega (BMG LABTECH, Ortenberg, Germany). Initially, the percentage inhibition was estimated for the test compounds and compared with a standard inhibitor of urease (thioureas). […] GraphPad (PRISM 8.0, San Diego, CA, USA) was utilized for the calculations of IC50 values. The synthesized compounds were dissolved in absolute ethanol for the percentage inhibition assay whereas dilutions were prepared in deionized water by keeping the final concentration at up to 1%. The standard inhibitor (thioureas) was used as a positive control in the assay whereas 1% ethanol was employed as a negative control during the assay.

[2] = molecular target: T1, urease; test: Enzyme kinetics study (Lineweaver–Burk plot) of urease inhibition; format: biochemical; conditions: compound 0.10-1.6 µM
From the text: By calculating the Lineweaver–Burk plot, the competitive mode of inhibition was shown by the compound Rx-6.

T1 sequence (P07374 whole entry, looked up): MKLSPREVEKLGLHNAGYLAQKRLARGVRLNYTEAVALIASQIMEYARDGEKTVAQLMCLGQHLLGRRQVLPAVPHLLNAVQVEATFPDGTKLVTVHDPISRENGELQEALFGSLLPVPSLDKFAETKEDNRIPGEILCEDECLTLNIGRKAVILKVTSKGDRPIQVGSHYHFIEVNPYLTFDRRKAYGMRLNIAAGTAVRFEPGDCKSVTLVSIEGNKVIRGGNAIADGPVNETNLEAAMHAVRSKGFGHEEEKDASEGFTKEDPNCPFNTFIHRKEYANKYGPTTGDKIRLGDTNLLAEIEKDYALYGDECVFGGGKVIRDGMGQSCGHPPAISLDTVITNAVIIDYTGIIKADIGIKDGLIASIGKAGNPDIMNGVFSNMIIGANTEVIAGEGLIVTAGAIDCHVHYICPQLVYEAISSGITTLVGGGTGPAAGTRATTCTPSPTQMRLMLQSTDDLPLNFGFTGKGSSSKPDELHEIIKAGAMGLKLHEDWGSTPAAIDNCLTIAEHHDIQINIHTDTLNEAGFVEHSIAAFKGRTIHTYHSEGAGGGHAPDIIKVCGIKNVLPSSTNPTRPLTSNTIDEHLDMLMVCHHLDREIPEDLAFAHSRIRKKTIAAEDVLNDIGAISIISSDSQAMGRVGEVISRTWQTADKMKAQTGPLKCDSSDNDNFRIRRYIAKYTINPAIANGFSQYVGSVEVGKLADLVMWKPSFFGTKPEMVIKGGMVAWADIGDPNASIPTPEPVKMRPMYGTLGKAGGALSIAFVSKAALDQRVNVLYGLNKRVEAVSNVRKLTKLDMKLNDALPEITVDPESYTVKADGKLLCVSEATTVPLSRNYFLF

| Compound | IC50 [1] | melting point | mode of inhibition (Lineweaver–Burk plot) [2] | IC50 ([1]; urease 5 U/mL, 30 min at 37 °C, pH 8.15, triplicate, read-out: IC50 ± SEM) |
| --- | --- | --- | --- | --- |
| N/C(S)=N/N=C/c1ccccn1 [Rx-1, Pyridine-2-yl-methylene thiosemicarbazide] | 3.23 ± 0.015 µM |  |  |  |
| Cc1cccc(/C=N/NC(N)=S)n1 [Rx-2, 6-Methylpyridine-2-yl methylene hydrazine-1-carbothioamide] | 6.41 ± 0.023 µM |  |  |  |
| NC(=S)N/N=C/c1cccc(Br)n1 [Rx-3, 6-Bromopyridine-2-yl methylene hydrazine-1-carbothioamide] | 3.13 ± 0.034 µM | 192 to 194 °C |  |  |
| COc1cccc(/C=N/NC(N)=S)n1 [Rx-4, 6-Methoxypyridine-2-yl methylene thiosemicarbazide] | 4.21 ± 0.022 µM |  |  |  |
| NC(=S)N/N=C/c1cccc(C(F)(F)F)n1 [Rx-5, 6-Trifluoromethyl pyridine-2-yl methylene hydrazine-1-carbothioamide] | 4.93 ± 0.012 µM |  |  |  |
| NC(=S)N/N=C/c1ccc(Cl)cn1 [Rx-6, 5-Chloropyridine-2-yl methylene hydrazinecarbothioamide] | 1.07 ± 0.043 µM | 244 to 246 °C | competitive |  |
| NC(=O)N/N=C/c1ccccn1 [Rx-7, 2-Pyridine-2-yl-methylene hydrazine carboxamide] | 2.18 ± 0.058 µM |  |  |  |
| Cc1cccc(/C=N/NC(N)=O)n1 [Rx-8, 6-Methylpyridine-2-yl methylene hydrazinecarboxamide] | 3.41 ± 0.011 µM | 218 to 219 °C |  |  |
| NC(=O)N/N=C/c1cccc(Br)n1 [Rx-9, 6-Bromopyridine-2-yl methylene hydrazinecarboxamide] | 14.49 ± 0.067 µM | 231 to 233 °C |  |  |
| COc1cccc(/C=N/NC(N)=O)n1 [Rx-10, 6-Methoxypyridine-2-yl methylene hydrazine carboxamide] | 5.52 ± 0.072 µM | 193 °C |  |  |
| NC(=O)N/N=C/c1cccc(C(F)(F)F)n1 [Rx-11, 6-Trifluoromethyl pyridine-2-yl methylene hydrazine carboxamide] | 5.96 ± 0.005 µM | 233 to 235 °C |  |  |
| NC(=O)N/N=C/c1ccc(Cl)cn1 [Rx-12, 5-Chloropyridine-2yl-methylene hydrazine carboxamide] | 4.07 ± 0.003 µM | 221 to 223 °C |  |  |
| NC(N)=S [Thiourea, reference compound] |  |  |  | 18.93 ± 0.004 µM |
